Results as given in paper PMC8159961, “Exploring protein hotspots by optimized fragment pharmacophores” (Nature Communications, 2021).
Values joined by “and” are separate entries in the source; they are usually repeats but may differ in a detail not shown here. Equal entries are not always repeated. “Also recorded” adds a separate entry of the source. Where two headings read alike, the source gives them in different places.

Key:
[1] = target: T1, human 5-HT1A receptor (Homo sapiens, UniProt P08908); test: GPCR radioligand binding assay, [3H]-8-OH-DPAT displacement, HEK293 membranes
T1 construct: expressed in transfected cells
T1 sequence (P08908 1-422): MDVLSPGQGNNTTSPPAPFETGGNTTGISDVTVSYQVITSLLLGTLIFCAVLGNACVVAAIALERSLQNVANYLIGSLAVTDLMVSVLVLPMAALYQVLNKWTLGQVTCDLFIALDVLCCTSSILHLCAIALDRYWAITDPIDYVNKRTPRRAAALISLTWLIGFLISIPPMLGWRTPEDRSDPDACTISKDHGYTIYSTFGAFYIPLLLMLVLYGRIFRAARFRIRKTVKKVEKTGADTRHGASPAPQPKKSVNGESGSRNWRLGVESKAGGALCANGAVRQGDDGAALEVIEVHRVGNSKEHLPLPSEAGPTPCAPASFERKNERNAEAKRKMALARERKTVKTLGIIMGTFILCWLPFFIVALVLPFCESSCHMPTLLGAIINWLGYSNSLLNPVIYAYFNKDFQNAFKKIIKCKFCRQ

[2] = target: T2, human 5-HT7b receptor (Homo sapiens, UniProt P34969); test: GPCR radioligand binding assay, [3H]-5-CT displacement, HEK293 membranes
T2 construct: expressed in transfected cells

[3] = target: T3, SARS-CoV-2 NSP3 macrodomain (Severe acute respiratory syndrome coronavirus 2, UniProt P0DTD1); test: X-ray fragment screening (XChem, crystal soaking); assay type: binding
[4] = target: T4, recombinant SETD2 (Homo sapiens, UniProt Q9BYW2); test: SETD2 Chemiluminescence assay (H3K36 tri-methylation); assay type: biochemical; conditions: for SETD2 signal, blank corrected, normalized to positive ctrl: internal control
T4 construct: purchased BPS Bioscience 52060
T4 sequence (Q9BYW2 1418-1714 limits assumed): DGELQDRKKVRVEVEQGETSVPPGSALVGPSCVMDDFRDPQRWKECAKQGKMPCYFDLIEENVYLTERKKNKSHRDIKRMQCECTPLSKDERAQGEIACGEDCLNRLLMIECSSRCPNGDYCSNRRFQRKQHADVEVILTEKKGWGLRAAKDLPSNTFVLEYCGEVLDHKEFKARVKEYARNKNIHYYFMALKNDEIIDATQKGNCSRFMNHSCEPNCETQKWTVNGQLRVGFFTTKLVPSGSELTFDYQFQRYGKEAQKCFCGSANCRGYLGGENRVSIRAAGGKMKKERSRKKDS

[5] = test system: SARS-CoV-2; test: microbe, parasite or virus in culture; assay type: cell-based
[6] = target: T5, human 5-HT6 receptor (Homo sapiens, UniProt P50406); test: GPCR radioligand binding assay, [3H]-LSD displacement, HEK293 membranes
T5 construct: expressed in transfected cells

[7] = target: T3, SARS-CoV-2 NSP3 macrodomain; test: NSP3 macrodomain HTRF assay, displacement of ADP-ribose-conjugated biotin peptide; assay type: binding
[8] = target: T6, human thrombin (Homo sapiens, UniProt P00734); test: Protease inhibitory assay, chromogenic substrate S-2238; assay type: biochemical; conditions: 1 = hit, 0 = no hit; screening at 200 µM
T6 construct: human thrombin; purchased Sigma-Aldrich

[9] = target: T7, bovine factor Xa (Bos taurus, UniProt P00743); test: Protease inhibitory assay, chromogenic substrate S-2222; assay type: biochemical; conditions: 1 = hit, 0 = no hit; screening at 200 µM
T7 construct: bovine factor Xa, Chromogenix, 2 nkat/mL; purchased Chromogenix

[10] = target: SARS-CoV-2 3CLPro (Severe acute respiratory syndrome coronavirus 2, UniProt P0DTD1); test: biochemical
[11] = test system: SETD2; conditions: cited from earlier work
[12] = test system: COVID-19; set-up: method as in PMID 33264556; conditions: trial discontinued in July 2020; cited from earlier work
[13] = 1 = hit, 0 = no hit, tested at 10 µM, hit = 50% or stronger inhibition

T2 sequence (P34969 1-432): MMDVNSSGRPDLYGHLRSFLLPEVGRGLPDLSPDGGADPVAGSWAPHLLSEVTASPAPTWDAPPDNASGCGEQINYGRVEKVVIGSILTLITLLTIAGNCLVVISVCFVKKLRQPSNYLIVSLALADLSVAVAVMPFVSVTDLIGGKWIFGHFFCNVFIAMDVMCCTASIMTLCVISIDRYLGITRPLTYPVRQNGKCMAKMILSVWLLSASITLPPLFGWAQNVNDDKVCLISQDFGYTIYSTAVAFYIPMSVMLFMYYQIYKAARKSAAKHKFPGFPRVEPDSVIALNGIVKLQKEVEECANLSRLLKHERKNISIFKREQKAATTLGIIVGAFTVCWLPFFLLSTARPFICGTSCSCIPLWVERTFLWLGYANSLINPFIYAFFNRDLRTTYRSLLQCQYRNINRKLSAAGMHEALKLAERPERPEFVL
T5 sequence (P50406 whole entry): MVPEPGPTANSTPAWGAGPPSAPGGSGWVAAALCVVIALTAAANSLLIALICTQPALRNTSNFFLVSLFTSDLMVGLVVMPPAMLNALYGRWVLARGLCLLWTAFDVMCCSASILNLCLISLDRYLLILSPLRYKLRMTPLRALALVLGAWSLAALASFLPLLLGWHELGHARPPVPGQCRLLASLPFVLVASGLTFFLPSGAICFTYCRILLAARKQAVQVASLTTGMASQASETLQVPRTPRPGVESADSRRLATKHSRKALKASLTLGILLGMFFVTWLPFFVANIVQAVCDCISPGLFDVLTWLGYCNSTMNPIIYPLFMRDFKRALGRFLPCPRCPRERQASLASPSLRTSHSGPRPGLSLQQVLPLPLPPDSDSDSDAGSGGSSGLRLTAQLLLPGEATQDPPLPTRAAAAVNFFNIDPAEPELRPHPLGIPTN
T7 sequence (P00743 234-492 limits assumed): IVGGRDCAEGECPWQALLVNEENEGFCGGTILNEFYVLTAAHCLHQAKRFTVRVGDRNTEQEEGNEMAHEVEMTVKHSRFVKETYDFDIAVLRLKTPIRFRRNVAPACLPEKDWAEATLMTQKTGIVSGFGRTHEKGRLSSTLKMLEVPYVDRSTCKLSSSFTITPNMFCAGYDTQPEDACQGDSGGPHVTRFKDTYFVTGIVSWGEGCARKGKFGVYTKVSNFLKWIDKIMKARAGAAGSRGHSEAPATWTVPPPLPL
T7 sequence (P00743 41-180 partner limits assumed): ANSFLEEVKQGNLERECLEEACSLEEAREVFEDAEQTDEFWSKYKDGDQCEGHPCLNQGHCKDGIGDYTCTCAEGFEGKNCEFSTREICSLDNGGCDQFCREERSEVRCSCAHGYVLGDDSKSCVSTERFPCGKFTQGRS

Nc1nnc2ccccn12 [SX005]
inhibition at 10 µM ([1]; 10 µM, read-out: 5-HT1A % Inhibition by plate position): 0%
experimental hit status, 5-HT1 [1, 13]: 0
inhibition at 10 µM ([1]; 5-HT1A, average of exp_1 and exp_2, read-out: %inh 5-HT1A average): -14%
inhibition at 10 µM ([1]; 5-HT1A, average, values below 0 and above 100% were set as 0 and 100, read-out: %inh 5-HT1A corrected*): 0%
inhibition at 10 µM ([1]; 5-HT1A, replicate exp_1, read-out: %inh 5-HT1A exp_1): 4%
inhibition at 10 µM ([1]; 5-HT1A, replicate exp_2, read-out: %inh 5-HT1A exp_2): -32%
inhibition at 10 µM ([2]; 10 µM, read-out: 5-HT7 % Inhibition by plate position): 0%
experimental hit status, 5-HT7 [2, 13]: 0
inhibition at 10 µM ([2]; 5-HT7, average of exp_1 and exp_2, read-out: %inh 5-HT7 average): -0.039%
inhibition at 10 µM ([2]; 5-HT7, average, values below 0 and above 100% were set as 0 and 100, read-out: %inh 5-HT7 corrected*): 0%
inhibition at 10 µM ([2]; 5-HT7, replicate exp_1, read-out: %inh 5-HT7 exp_1): -4.51%
inhibition at 10 µM ([2]; 5-HT7, replicate exp_2, read-out: %inh 5-HT7 exp_2): 4.43%
X-ray screen result, binding site [3]: identified in the active site
experimental hit status, SETD2 ([4]; 1 = hit, 0 = no hit): 0
inhibition at 1000 µM ([5]; Severe acute respiratory syndrome coronavirus 2, Vero C1008, read-out: Inhibition (%) of viral copy numbers, 1000 uM, replicates): 83.7%
antiviral activity in the cellular assay (in words) ([5]; infected Vero E6 cells): high micromolar range; also recorded: Significant antiviral activities
inhibition at 10 µM ([6]; 10 µM, read-out: 5-HT6 % Inhibition by plate position): 40%
experimental hit status, 5-HT6 [6, 13]: 0
inhibition at 10 µM ([6]; 5-HT6, average of exp_1 and exp_2, read-out: %inh 5-HT6 average): 40%
inhibition at 10 µM ([6]; 5-HT6, average, values below 0 and above 100% were set as 0 and 100, read-out: %inh 5-HT6 corrected*): 40%
inhibition at 10 µM ([6]; 5-HT6, replicate exp_1, read-out: %inh 5-HT6 exp_1): 45%
inhibition at 10 µM ([6]; 5-HT6, replicate exp_2, read-out: %inh 5-HT6 exp_2): 35%
% SARS-CoV-2 macrodomain inhibition ([7]; 39.0625 µM, replicates): 11.4%
inhibition at 39.0625 µM ([7]; 39.0625 µM, replicates): 10.2%
% SARS-CoV-2 macrodomain inhibition ([7]; 78.125 µM, replicates): 23.5%
inhibition at 78.125 µM ([7]; 78.125 µM, replicates): 22.6%
% SARS-CoV-2 macrodomain inhibition ([7]; 156.25 µM, replicates): 31.2%
inhibition at 156.25 µM ([7]; 156.25 µM, replicates): 27.9%
% SARS-CoV-2 macrodomain inhibition ([7]; 312.5 µM, replicates): 41.8%
inhibition at 312.5 µM ([7]; 312.5 µM, replicates): 41%
% SARS-CoV-2 macrodomain inhibition ([7]; 625 µM, replicates): 55.4%
inhibition at 625 µM ([7]; 625 µM, replicates): 54.1%
% SARS-CoV-2 macrodomain inhibition ([7]; 1250 µM, replicates): 64.7%
inhibition at 1250 µM ([7]; 1250 µM, replicates): 65%
% SARS-CoV-2 macrodomain inhibition ([7]; 2500 µM, replicates): 70.5%
inhibition at 2500 µM ([7]; 2500 µM, replicates): 72%
% SARS-CoV-2 macrodomain inhibition ([7]; 5000 µM, replicates): 74.9%
inhibition at 5000 µM ([7]; 5000 µM, replicates): 74.7%
IC50 ([7]; IC50, SARS-CoV-2 macrodomain inhibition): 465 µM
experimental hit status, Thrombin [8]: 0
experimental hit status, Factor Xa [9]: 0

CS(=O)(=O)c1ccc(N2CCNCC2)cc1 [SX013]
IC50 [10]: 31 µM
Inhibition (%) ([5]; 10 uM, Vero E6, replicates): 0% (2×) and 3.199%
viral copy numbers normalized to the control (untreated infected cells) ([5]; 10 uM, Vero E6, replicates): 1.473 and 0.968 and 1.581
Inhibition (%) ([5]; 100 uM, Vero E6, replicates): 10.36% and 9.981% and 0%
viral copy numbers normalized to the control (untreated infected cells) ([5]; 100 uM, Vero E6, replicates): 0.8964 and 0.9002 and 2.418
Inhibition (%) ([5]; 250 uM, Vero E6, replicates): 47.65% and 50.9%
viral copy numbers normalized to the control (untreated infected cells) ([5]; 250 uM, Vero E6, replicates): 0.5487 and 0.5235 and 0.491
Inhibition (%) ([5]; 500 uM, Vero E6, replicates): 62.09% and 74.66%
viral copy numbers normalized to the control (untreated infected cells) ([5]; 500 uM, Vero E6, replicates): 0.2563 and 0.3791 and 0.2534
Inhibition (%) ([5]; 750 uM, Vero E6, replicates): 96.1% and 86.32%
viral copy numbers normalized to the control (untreated infected cells) ([5]; 750 uM, Vero E6, replicates): 0.06859 and 0.03899 and 0.1368
Inhibition (%) ([5]; 1000 uM, Vero E6, replicates): 99.81%
viral copy numbers normalized to the control (untreated infected cells) ([5]; 1000 uM, Vero E6, replicates): 0.003839 and 0.001919 and 0
Inhibition (%) ([5]; 1500 uM, Vero E6, replicates): 99.97%
viral copy numbers normalized to the control (untreated infected cells) ([5]; 1500 uM, Vero E6, replicates): 0 (2×) and 0.000289
inhibition at 250 µM ([5]; Severe acute respiratory syndrome coronavirus 2, Vero C1008, 250 uM, Vero E6, replicates): 45.1%
inhibition at 500 µM ([5]; Severe acute respiratory syndrome coronavirus 2, Vero C1008, 500 uM, Vero E6, replicates): 74.4%
inhibition at 750 µM ([5]; Severe acute respiratory syndrome coronavirus 2, Vero C1008, 750 uM, Vero E6, replicates): 93.1%
inhibition at 1000 µM ([5]; Severe acute respiratory syndrome coronavirus 2, Vero C1008, 1000 uM, Vero E6, replicates): 99.6%
inhibition at 1500 µM ([5]; Severe acute respiratory syndrome coronavirus 2, Vero C1008, 1500 uM, Vero E6, replicates): 100%
EC50 ([5]; Severe acute respiratory syndrome coronavirus 2, Vero C1008, 48 h, read-out: EC50, blocking SARS-CoV-2 replication, Vero E6 cells, 48 h post infection): 304 µM
EC50 ([5]; read-out: EC50, blocking SARS-CoV-2 replication, Vero E6 cells, 48 h post infection): 304 µM

Nc1ncnc2c1ncn2[C@@H]1O[C@H](C[C@@H](N)CC[C@H](N)C(=O)O)[C@@H](O)[C@H]1O [Sinefungin, reference compound]
activity as inhibitor of SETD2 (in words) [11]: moderately active
inhibition of SETD2 activity (control, in words) ([4]; 200 µM Sinefungin): complete inhibition
SETD2 signal, blank corrected, normalized to positive ctrl ([4]; 200 µM): 0.074
SETD2 signal, blank corrected, normalized to positive ctrl ([4]; 800 µM): 0.0136

lopinavir/ritonavir
clinical trial outcome against COVID-19 [12]: ineffectiveness
